Experimental data as given in paper PMC7932080, “In vitro study of Hesperetin and Hesperidin as inhibitors of zika and chikungunya virus proteases” (PLoS ONE, 2021).

Columns and labels:
[1] = system: CHIKV; settings: cited from earlier work
[2] = cited from earlier work
[3] = molecular target: CHIKV nsP2^pro (Chikungunya virus, UniProt Q8JUX6); test: Thermal unfolding by fluorescence spectroscopy; settings: 10 µM protease, 75 µM ligand
Chain of CHIKV nsP2^pro (Q8JUX6 1001-1333): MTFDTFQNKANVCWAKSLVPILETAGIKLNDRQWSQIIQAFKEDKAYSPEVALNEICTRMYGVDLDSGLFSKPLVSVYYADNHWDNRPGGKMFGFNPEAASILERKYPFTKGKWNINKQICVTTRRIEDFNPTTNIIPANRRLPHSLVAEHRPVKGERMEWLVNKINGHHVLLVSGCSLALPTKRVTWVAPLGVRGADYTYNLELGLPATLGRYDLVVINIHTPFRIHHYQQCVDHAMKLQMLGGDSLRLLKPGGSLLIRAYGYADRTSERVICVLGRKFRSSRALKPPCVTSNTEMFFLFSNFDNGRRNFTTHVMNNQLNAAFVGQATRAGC

COc1ccc(C2CC(=O)c3c(O)cc(O)cc3O2)cc1O (stereo not shown) [HST, 3’,5,7-trihydroxy-4’-methoxyflavanone]
Intracellular replication of CHIKV [1]: inhibit | Potential maximal tolerated dose [2]: Citrus flavonoids are extremely safe and without side effects also up to high concentrations of 100 mg/kg to 500 mg/kg. | Melting temperature (Tm) of protease-ligand complex [3]: 55 °C | ΔTm [3]: ~8 °C
